In patent publication US12543736B2, “Herbicidal compositions comprising mesotrione” (BASF SE, priority 2024, dated 2026):

Assays:
Type in all cases: in vivo
[1] = system: Alopercurus myosuroides; assay: Example 1 post-emergence greenhouse trial, ALOMY; conditions: growth stage 13, 21 DAT, g ai/ha: A-1 4, B 62.5
Procedure: In the examples below, using the method of S. R. Colby (1967) “Calculating synergistic and antagonistic responses of herbicide combinations”, Weeds 15, p. 22ff., the value E, which is expected if the activity of the individual active compounds is only additive, was calculated: [formula] • where • X=percent activity using active herbicide A at an application rate a; • Y=percent activity using active herbicide B (e.g. mesotrione) at an application rate b; • E=expected activity (in %) by A+B at application rates a+b. If the value found experimentally is higher than the value E calculated according to Colby, a synergistic effect is present. The culture containers used were plastic pots containing loamy sand with approximately 3.0% of humus as substrate. The seeds of the test plants were sown separately for each species. For the post-emergence treatment, the test plants were grown to a plant height of from 3 to 15 cm, depending on the plant habit, and only then treated with the active compounds which had been suspended or emulsified in water. To this end, the test plants were either sown directly, and grown in the same containers, or they were first grown separately as seedlings and transplanted into the test containers a few days prior to treatment. […] During this time, the plants were tended and their response to the individual treatments was evaluated. […]

[2] = system: Erigeron canadensis; assay: Example 2 post-emergence greenhouse trial, ERICA
Procedure: In the examples below, using the method of S. R. Colby (1967) “Calculating synergistic and antagonistic responses of herbicide combinations”, Weeds 15, p. 22ff., the value E, which is expected if the activity of the individual active compounds is only additive, was calculated: [formula] • where • X=percent activity using active herbicide A at an application rate a; • Y=percent activity using active herbicide B (e.g. mesotrione) at an application rate b; • E=expected activity (in %) by A+B at application rates a+b. If the value found experimentally is higher than the value E calculated according to Colby, a synergistic effect is present. The culture containers used were plastic pots containing loamy sand with approximately 3.0% of humus as substrate. The seeds of the test plants were sown separately for each species. For the post-emergence treatment, the test plants were grown to a plant height of from 3 to 15 cm, depending on the plant habit, and only then treated with the active compounds which had been suspended or emulsified in water. To this end, the test plants were either sown directly, and grown in the same containers, or they were first grown separately as seedlings and transplanted into the test containers a few days prior to treatment. Depending on the species, the plants were kept at 10-25° C. and 20-35° C., respectively. The test period extended over 2 to 4 weeks. During this time, the plants were tended and their response to the individual treatments was evaluated. Evaluation was carried out using a scale from 0 to 100. 100 means no emergence of the plants, or complete destruction of at least the above-ground parts, and 0 means no damage or normal course of growth. A good herbicidal activity is given at values of at least 70, and very good herbicidal activity is given at values of at least 85. Post-Emergence Application of Herbicide A-1 (A-1) and Mesotrione (B) in Greenhouse Trials Herbicide A-1 (342 g/l) and mesotrione (480 g/l) were, together with addition of 0.5 v/v % MSO (methylated sed oil) as adjuvant, formulated in water as distribution medium (water volume 200 l/ha) and sprayed with commercial flat fan nozzles.

[3] = system: Echinochloa crus-galli; assay: Example 3 post-emergence field trial, ECHCG; conditions: height 15-20 cm
Procedure: (§1) In the examples below, using the method of S. R. Colby (1967) “Calculating synergistic and antagonistic responses of herbicide combinations”, Weeds 15, p. 22ff., the value E, which is expected if the activity of the individual active compounds is only additive, was calculated: [formula] • where • X=percent activity using active herbicide A at an application rate a; • Y=percent activity using active herbicide B (e.g. mesotrione) at an application rate b; • E=expected activity (in %) by A+B at application rates a+b. If the value found experimentally is higher than the value E calculated according to Colby, a synergistic effect is present. Evaluation was carried out using a scale from 0 to 100. 100 means no emergence of the plants, or complete destruction of at least the above-ground parts, and 0 means no damage or normal course of growth. A good herbicidal activity is given at values of at least 70, and very good herbicidal activity is given at values of at least 85. Post-Emergence Application of Herbicide A-1 (A-1) and Mesotrione (B) in Field Trials Herbicide A-1 (342 g/l) and mesotrione (100 g/l) were, together with addition of 0.5 v/v % MSO (methylated sed oil) as adjuvant, formulated in water as distribution medium (water volume 200 l/ha) and sprayed with commercial flat fan nozzles.

[4] = system: Senecio vulgaris; assay: Example 3 post-emergence field trial, SENVU; conditions: height 25-30 cm, 7 DAT
Procedure: as §1

[5] = system: Zea mays; assay: Example 3 post-emergence field trial, ZEAMX
Procedure: as §1

[6] = growth stage 19, 7 DAT, g ai/ha: A-1 1, B 50
[7] = growth stage 19, 20 DAT, g ai/ha: A-1 0.5, B 50
[8] = growth stage 19, 20 DAT, g ai/ha: A-1 2, B 50
[9] = 7 DAT, g ai/ha: A-1 12.5, B 105
[10] = 7 DAT, g ai/ha: A-1 12.5, B 210
[11] = 21 DAT, g ai/ha: A-1 12.5, B 105
[12] = 28 DAT, g ai/ha: A-1 12.5, B 105
[13] = height 27-33 cm, 7 DAT, g ai/ha: A-1 12.5, B 105
[14] = height 27-33 cm, 7 DAT, g ai/ha: A-1 12.5, B 210
[15] = height 27-33 cm, 7 DAT, g ai/ha: A-1 18, B 105
[16] = height 27-33 cm, 7 DAT, g ai/ha: A-1 18, B 210
[17] = height 27-33 cm, 21 DAT, g ai/ha: A-1 12.5, B 105
[18] = height 27-33 cm, 21 DAT, g ai/ha: A-1 12.5, B 210
[19] = height 27-33 cm, 21 DAT, g ai/ha: A-1 18, B 105
[20] = height 27-33 cm, 21 DAT, g ai/ha: A-1 18, B 210
[21] = height 27-33 cm, 28 DAT, g ai/ha: A-1 12.5, B 105
[22] = height 27-33 cm, 28 DAT, g ai/ha: A-1 12.5, B 210
[23] = height 27-33 cm, 28 DAT, g ai/ha: A-1 18, B 105
[24] = height 27-33 cm, 28 DAT, g ai/ha: A-1 18, B 210
[25] = height 40-60 cm, 7 DAT, g ai/ha: A-1 12.5, B 105
[26] = height 40-60 cm, 7 DAT, g ai/ha: A-1 12.5, B 210
[27] = height 40-60 cm, 7 DAT, g ai/ha: A-1 18, B 105
[28] = height 40-60 cm, 7 DAT, g ai/ha: A-1 18, B 210

Structure (SMILES) | % herbicidal activity [1] [%] | % herbicidal activity [2, 6] [%] | % herbicidal activity [2, 7] [%] | % herbicidal activity [2, 8] [%] | % herbicidal activity [3, 9] [%] | % herbicidal activity [3, 10] [%] | % herbicidal activity ([3]; 7 DAT, g ai/ha: A-1 18, B 105) [%] | % herbicidal activity ([3]; 7 DAT, g ai/ha: A-1 18, B 210) [%] | % herbicidal activity [3, 11] [%] | % herbicidal activity ([3]; 21 DAT, g ai/ha: A-1 18, B 105) [%] | % herbicidal activity [3, 12] [%] | % herbicidal activity ([3]; 28 DAT, g ai/ha: A-1 18, B 105) [%] | % herbicidal activity ([4]; g ai/ha: A-1 12.5, B 210) [%] | % herbicidal activity ([4]; g ai/ha: A-1 18, B 210) [%] | % herbicidal activity [5, 13] [%] | % herbicidal activity [5, 14] [%] | % herbicidal activity [5, 15] [%] | % herbicidal activity [5, 16] [%] | % herbicidal activity [5, 17] [%] | % herbicidal activity [5, 18] [%] | also measured
CCOC(=O)COc1ccccc1Oc1nc(-n2c(=O)cc(C(F)(F)F)n(C)c2=O)c(F)cc1Cl [A-1, ethyl 2-[2-[[3-chloro-5-fluoro-6-[3-methyl-2,6-dioxo-4-(trifluoromethyl)pyrimidin-1-yl]-2-pyridyl]oxy]phenoxy]acetate] | 85 | 80 | 70 | 85 | 30 | 20 | 30 | 30 | 30 | 30 | 20 | 30 | 85 | 88 | 30 | 45 | 40 | 55 | 80 | 85 | % herbicidal activity [5, 19]: 90%; % herbicidal activity [5, 20]: 80%; % herbicidal activity [5, 21]: 80%; % herbicidal activity [5, 22]: 80%; % herbicidal activity [5, 23]: 88%; % herbicidal activity [5, 24]: 85%; % herbicidal activity [5, 25]: 85%; % herbicidal activity [5, 26]: 85%; % herbicidal activity [5, 27]: 85%; % herbicidal activity [5, 28]: 85%
CS(=O)(=O)c1ccc(C(=O)C2C(=O)CCCC2=O)c([N+](=O)[O-])c1 [B, mesotrione] | 0 | 25 | 80 | 80 | 50 | 50 | 50 | 50 | 60 | 60 | 50 | 50 | 40 | 40 | 0 | 0 | 0 | 0 | 0 | 0 | % herbicidal activity [5, 19]: 0%; % herbicidal activity [5, 20]: 0%; % herbicidal activity [5, 21]: 0%; % herbicidal activity [5, 22]: 0%; % herbicidal activity [5, 23]: 0%; % herbicidal activity [5, 24]: 0%; % herbicidal activity [5, 25]: 5%; % herbicidal activity [5, 26]: 5%; % herbicidal activity [5, 27]: 5%; % herbicidal activity [5, 28]: 5%
